Assay results: US9714229B2, “Crystal of tetracyclic compound” (Chugai Seiyaku Kabushiki Kaisha, priority 2014, dated 2017)

Legend:
[1] = Measurement of vapor sorption isotherm of type II crystal (DVS-1); format: physicochemical; settings: for weight change rate (%): about 25° C.
Protocol: For the type II crystal of the monohydrochloride of 9-ethyl-6,6-dimethyl-8-(4-morpholin-4-yl-piperidin-1-yl)-11-oxo-6,11-dihydro-5H-benzo[b]carbazole-3-carbonitrile (about 5 mg), the vapor sorption isotherm was measured using a dynamic vapor sorption isotherm instrument: DVS-1 (Surface Measurement Systems) under the following conditions.
• Temperature: Constant temperature of about 25° C. • Atmospheric gas: Dry nitrogen • Flow rate of atmospheric gas: 200 sccm (ml/min) • Minimum waiting time: 10 min • Maximum waiting time: 1200 min • Mass change rate: 0.002 dm/dt (% min), where the mass change rate was 0.001 dm/dt (% min) at 5, 10, 15, 55, 60, and 65% RH.
Relative humidity: Relative humidity was varied to 0, 5, 10, 15, 20, 30, 40, 50, 55, 60, 65, 70, 80, 90, 80, 70, 65, 60, 55, 50, 40, 30, 20, 15, 10, 5, and 0% RR in this order. Such variation was regarded as one cycle, and three cycles were carried out. The weight change rate (%) of the type II crystal, when the temperature environment was varied from a relative humidity of 0% RH to 90% RH at about 25° C., was 3.7% in the range of a relative humidity from 0% RH to 15% RH, 0.05% in the range of a relative humidity from 15% RH to 55% RH, 11% in the range of a relative humidity from 55% RH to 65% RH, and 0.04% in the range of a relative humidity from 65% RH to 90% RH.

[2] = Investigation on transformation of crystal form of type II crystal due to humidity (powder X-ray diffraction); format: physicochemical
Protocol: For the type I, type II, and type III crystals of a monohydrochloride of 9-ethyl-6,6-dimethyl-8-(4-morpholin-4-yl-piperidin-1-yl)-11-oxo-6,11-dihydro-5H-benzo[b]carbazole-3-carbonitrile, the powder X-ray diffraction was measured under the following conditions. The measurement results for the type II crystal, the type III crystal, and the type I crystal are shown in FIGS. 1, 2, and 3. • Measuring apparatus: X'Pert-Pro MPD (manufactured by PANalytical HV) • Anticathode: Cu • Tube voltage: 45 kV • Tube current: 40 mA • Step width: 0.02 • Scan axis: 20 • Sampling time per: 43 seconds • Scan range: 3 to 40°
In order to investigate the transformation of the crystal form of the type II crystal of the monohydrochloride of 9-ethyl-6,6-dimethyl-8-(4-morpholin-4-yl-piperidin-1-yl)-11-oxo-6,11-dihydro-5H-benzo[b]carbazole-3-carbonitrile due to humidity, samples were placed in the following humidity conditions, and changes in crystal form were investigated using the powder X-ray diffraction.
Test Conditions 1 (Investigation on Transformation of Crystal form of Type II Crystal at Low Humidity)
• Amount of sample: About 17 mq • Temperature: Constant temperature of about 25° C. • Atmospheric gas: Dry nitrogen • Flow rate of atmospheric gas: 200 sccm (ml/min) • Mass change rate: 0.002 dm/dt • Relative humidity: Samples were placed at a relative humidity of 0% RH • Minimum waiting time: 10 min • Maximum waiting time: 1200 min. Test Conditions 2 (Iinvestigation on Transformation of Crystal Form of Type II Crystal at High Humidity) • Amount of sample: About 16 mg • Temperature: Constant temperature of about 25° C. • Atmospheric s: Dry nitrogen • Flow rate of atmospheric gas: 200 sccm (ml/min) • Mass change rate: 0.002 dm/dt (%/min) • Relative humidity: Samples were placed at a relative humidity of 70% RH • Minimum waiting time: 10 min • Maximum waiting time: 1200 min

- weight change rate (%) ([1]; relative humidity from 0% RH to 15% RH): 3.7%
- weight change rate (%) ([1]; relative humidity from 15% RH to 55% RH): 0.05%
- weight change rate (%) ([1]; relative humidity from 55% RH to 65% RH): 11%
- weight change rate (%) ([1]; relative humidity from 65% RH to 90% RH): 0.04%
- form inferred from molecular weight and mass change rate on storage at low humidity ([1]; stored in an atmosphere of 0% RH): transformed into a monohydrochloride
- time after which crystal form had returned to the original form when allowed to stand in the air ([2]; after storage at 70% RH, powder X-ray diffraction measured over time): 4 h
- time to return to the original crystal form when allowed to stand in the air ([2]; after storage at low humidity (0% RH)): within one hour
- relative humidity at which the crystal absorbs moisture and transforms into another crystal form containing water of crystallization (high humidity environment) ([2]; inferred from the XRPD results): ≥ 65 RH
- relative humidity at which the crystal dehydrates to an anhydrate (low humidity environment) ([2]; inferred from the XRPD results): ≤ 15 % RH
SMILES: CCc1cc2c(cc1N1CCC(N3CCOCC3)CC1)C(C)(C)c1[nH]c3cc(C#N)ccc3c1C2=O [type II crystal, 9-ethyl-6,6-dimethyl-8-(4-morpholin-4-yl-piperidin-1-yl)-11-oxo-6,11-dihydro-5H-benzo[b]carbazole-3-carbonitrile]
- form inferred from molecular weight and mass change rate in high humidity environment ([1]; humidity of 65% RH or more): transformed into a monohydrochloride tetrahydrate
- change in crystal form on storage at low humidity ([2]; relative humidity 0% RH, about 25° C., dry nitrogen, powder X-ray diffraction (FIG. 4)): transformation into another crystal form was caused
- change in crystal form on storage at high humidity ([2]; relative humidity 70% RH, about 25° C., powder X-ray diffraction (FIG. 5)): transformation into another crystal form was caused
